Experimental data: PubChem BioAssay AID179 (DTP/NCI, 2004)
Several values for one entry are separate records, joined by “and”; a condition that tells them apart may be missing. Equal entries are not always repeated. Activity calls are given as the source filed them.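 The calls were made as follows: active = compounds giving half or more protection of infected cells from virus-caused growth loss, again on retest; inactive = the rest.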

Tested on: CEM cells HIV-1 protection, formazan growth assay
Assay: NCI AIDS Antiviral Assay
Settings: for IC50: measured here: growth of uninfected CEM cells
Outline: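 Human CEM cells, uninfected and HIV-1-infected, exposed to five drug concentrations; growth measured by soluble formazan assay and scored as percent protection from infection, with protecting compounds retested.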

SMILES | outcome | EC50 | IC50
N#Cc1ccc(Cc2ccccn2)cc1Cl | inactive |  | 
Cc1ccc(-c2cc(=O)c3cc(C)c(C)c(C(=O)O)c3o2)cc1[N+](=O)[O-] | inactive |  | 
Oc1cc(OCCCc2ccc(F)cc2)cc2ccc3ccccc3c12 |  | > 55 µM | 31.6 µM
COc1cc2c(cc1OC)C(=O)Cc1ccc(OC)c(OC)c1CN(C)CC2 |  | > 67.6 µM | > 67.6 µM
Nc1ncn2c(n1)nc1ccccc12 |  | > 200 µM | > 200 µM
COc1cc(C=C2C(=O)NC(=O)NC2=O)cc(OC)c1OC |  | > 427 µM | 257 µM
CCOC(=O)CC1(C(=O)OCC)c2[nH]c3ccccc3c2CCN1Cc1ccccc1 (stereo not given) |  | > 69.2 µM | 17.4 µM
COP(=O)(CCC1OCCO1)OC |  | > 200 µM | > 200 µM
OCC(c1ccccc1)[P+](c1ccccc1)(c1ccccc1)c1ccccc1 (stereo not given) |  | > 200 µM | 11.2 µM
O=C(Nc1ccc2cc(S(=O)(=O)O)ccc2c1)c1ccc(N=Nc2cc(S(=O)(=O)O)c3ccccc3c2O)cc1 |  | > 50.1 µM | > 50.1 µM
COc1cc2ccc(CC(=O)O)cc2cc1OC | inactive |  | 
Cc1ccc(S(=O)(=O)NCC2CCCCC2=O)cc1 (stereo not given) |  | > 129 µM | 123 µM
NC(=O)c1cc(/C=C/c2ccccc2)on1 |  | > 200 µM | > 200 µM
Nc1c(-c2nc3ccccc3[nH]2)sc(=S)n1-c1ccccc1 |  | > 11.5 µM | > 11.5 µM
CC(=O)N(C(C)=O)c1ccc(-c2cccs2)oc1=O |  | > 200 µM | > 200 µM
O=C1CN(CCN2CCCCC2)CC(=O)N2CCCCN12 |  | > 200 µM | > 200 µM
Brc1cccc(-c2nc3ccccc3[nH]2)c1 |  | > 132 µM | 87.1 µM
C=C1C(=O)OC2C3C(C)=CC(=O)C3=C(C)CC[C@@H]12 (stereo not given in full) |  | > 30.9 µM | 2.04 µM
CCOc1ccc(/C=C2/C(=O)N(/C=C3/C(=O)Oc4ccccc4C3=O)C(=NC(C)=O)N2C)cc1 |  | > 200 µM | > 200 µM
CN1Cc2ccccc2C2(COc3ccc(C=O)cc3C2=O)C1 (stereo not given) | inactive |  | 
O=C(O)c1cc(N=Nc2ccc(CCc3ccc(N=Nc4cc(C(=O)O)c(O)cc4O)cc3S(=O)(=O)O)c(S(=O)(=O)O)c2)c(O)cc1O |  | 70.8 µM | 135 µM
Cc1cc2nc3n(c2cc1C)C(c1c(F)cccc1F)SC3 (stereo not given) |  | > 44.7 µM | 20.9 µM
COc1ccc(-c2oc3cc(OC)ccc3c(=O)c2O)cc1 |  | > 200 µM | > 200 µM

SMILES | outcome | EC50 | IC50
COC(=O)[C@@H]1C[C@]2(CC=C(C)C)c3ccccc3N(S(=O)(=O)c3ccccc3)[C@@H]2N1C(=O)OC |  | > 200 µM | 20 µM
O=C(O)c1cc(O)cc(O)c1N=Nc1ccc(/C=C/c2ccc(N=Nc3c(O)cc(O)cc3C(=O)O)cc2S(=O)(=O)O)c(S(=O)(=O)O)c1 |  | 0.813 µM | 91.2 µM
O=C(Nc1ccc2oc(=O)c(C(=O)O)cc2c1)Oc1ccccc1 |  | > 282 µM | > 282 µM
COC(=O)c1cc2nc(NC(C)=O)sc2n1C |  | > 200 µM | > 200 µM
O=C1NCCCCC1CC/C=C/c1ccccc1 (stereo not given) |  | > 148 µM | 95.5 µM
O=C1CCCCC(=O)Nc2ccccc2-c2ccccc2N1 | inactive |  | 
CN1C(=O)/C(=C2\SC(=O)N(CN3CCOCC3)C2=O)c2cc(Br)ccc21 |  | > 200 µM | 26.3 µM
CC(C)(C)OC(=O)NC(Cc1ccccc1)NC(=O)NC(=O)OCc1ccccc1 (stereo not given) |  | > 200 µM | 112 µM
NS(=O)(=O)C1CCCCC1C(=O)NNC(=O)C(=O)Nc1nc(=S)[nH][nH]1 (stereo not given) |  | > 646 µM | > 646 µM
COc1ccccc1/C=C1\C=Cc2ccccc21 |  | > 204 µM | 31.6 µM
CN(C)c1ccc(/C=C(\NC(=O)c2ccccc2)C2=NC(CCC(=O)O)C(=O)O2)cc1 (stereo not given) |  | > 50.1 µM | > 50.1 µM
O=C(O)C(=C\c1ccc2c(c1)OCO2)/C(=C/c1ccc2c(c1)OCO2)C(=O)O | inactive |  | 
CC1(C)Oc2ncnc(N)c2C1c1ccccc1 (stereo not given) |  | > 1020 µM | 457 µM
C=C(C)Cn1c(=O)c2c(ncn2C)n(C)c1=O |  | > 200 µM | > 200 µM
CN(C)CC1CN=C(NC(=O)Nc2ccccc2)O1 (stereo not given) |  | > 200 µM | > 200 µM
N#CC(C#N)C1CN2CCC1CC2 (stereo not given) |  | > 200 µM | > 200 µM
S=C1SCC2CCCN12 (stereo not given) | inactive |  | 
COc1ccc(C2NC(=S)N3C(c4ccc(OC)c(OC)c4)NC(=S)N23)cc1OC (stereo not given) |  | > 200 µM | > 200 µM
Cn1cc(N)cc1C(=O)Nc1cc(C(=O)Nc2ccc3cc(S(=O)(=O)O)cc(S(=O)(=O)O)c3c2)n(C)c1 |  | 36.3 µM | 316 µM
CCOC(=O)C(NC(=O)c1ccccc1)(N1CCN(c2cc3c(cc2F)c(=O)c(C(=O)O)cn3CC)CC1)C(F)(F)F (stereo not given) |  | > 200 µM | 34.7 µM
COc1cccc(/C=N/[N-]C(N)=O)c1[O-].[Ni+2].[OH3+] |  | > 166 µM | 0.0525 µM
Nc1ncc2ncn(C3CCC(CO)O3)c2n1 (stereo not given) |  | > 200 µM | > 200 µM
CC(C)(O)S(=O)(=O)O |  | > 200 µM | > 200 µM

SMILES | outcome | EC50 | IC50
CNC(=S)N/N=C(C)\C(=N/NC(=S)NC)c1ccccc1 |  | > 200 µM | 29.5 µM
[N-]=[N+]=NC12CC3CC4C5CC(CC41)CC2[C@H]5C3 |  | > 81.3 µM | > 81.3 µM
Cc1cccnc1/N=C/c1c(O)n(C)c(=O)[nH]c1=O |  | > 200 µM | > 200 µM
NC(=O)c1ncn(CCCCCO)c1N |  | > 200 µM | > 200 µM
CC(=O)NC(C)(C)C1CCC(C)CC1 (stereo not given) |  | > 200 µM | > 200 µM
NC(N)=NS(=O)(=O)c1ccc(-n2sc3ccccc3c2=O)cc1 |  | 4.37 µM | 19.1 µM
CCCC/C=C(/CCCNCCCC)[Si](C)(C)C |  | > 479 µM | 240 µM
CCCC(=O)Nc1cc2c3c(c1)CCCN3CCC2 |  | > 200 µM | 79.4 µM
Cc1cc(N(CCC#N)S(=O)(=O)c2ccccc2)ccc1C=O |  | > 110 µM | > 110 µM
Nc1nc2cc([N+](=O)[O-])cnc2s1 |  | > 479 µM | 437 µM
COc1ccnc(C(=O)N2CCCC2C(=O)O)c1 (stereo not given) |  | > 200 µM | > 200 µM
Cc1ccccc1NC(=O)C(=O)C(C#N)c1ccc(Cl)cc1 (stereo not given) |  | > 12 µM | > 12 µM
NNC(=O)CC(=O)Nc1ccccc1Cl |  | > 200 µM | > 200 µM
CCOC(=O)C1N(S(=O)(=O)c2ccc(C)cc2)CCC12C(c1ccc(OC)c(OC)c1)=Nc1ccccc12 (stereo not given) | inactive |  | 
Cc1cc(C)c2c(c1)C(=O)/C(=C/c1ccccc1C(=O)O)C2 | inactive |  | 
CCOC(=O)c1ccc(NC(=S)Nc2ncccc2C)cc1 |  | > 200 µM | 158 µM
O=C(CCc1cccc(O)c1)NCCc1cccc(O)c1 |  | > 200 µM | > 200 µM
CC(O)CNC1=CC(=O)C(=O)c2ccccc21 (stereo not given) |  | > 200 µM | 28.8 µM
CCOP(=S)(N/N=C1\CC2CCC1C2)OCC (stereo not given) |  | > 200 µM | > 200 µM
CC1(C#N)N(C(=O)c2ccccc2)c2ccccc2N1C(=O)c1ccccc1 | inactive |  | 
S=C1N(c2ccc(Br)cc2)C2=Nc3ccccc3SC(=C2N=Nc2ccccc2)N1c1ccc(Cl)cc1 |  | > 37.2 µM | 17 µM
COC(=O)c1cc(C)ccc1/C=C1\Cc2cccc(C)c2C1=O |  | > 200 µM | 
CN(CCCn1ccnc1[N+](=O)[O-])CCCn1ccnc1[N+](=O)[O-] |  | > 200 µM | 83.2 µM

SMILES | outcome | EC50 | IC50
COc1ccc(-c2oc3c(CC(=O)O)cccc3c(=O)c2OC)cc1 |  | > 200 µM | 112 µM
O=C(NP1(=O)NCc2ccccc2CN1)OC1CCCCC1 |  | > 288 µM | > 288 µM
CCCC(O)CNCc1ccc(N(C)C)cc1 (stereo not given) | inactive |  | 
CCC1SC(C)C(=O)NC1=O (stereo not given) |  | > 661 µM | > 661 µM
COC(=O)N/N=C(\C)C(CN1CCCCC1)C(C1=C(O)c2ccccc2OC1)c1ccccc1 (stereo not given) |  | > 72.4 µM | 42.7 µM
NC(CCC(=O)NC(CS(=O)(=O)O)C(=O)O)C(=O)O (stereo not given) |  | > 603 µM | > 603 µM
CC(C)(C)C(=O)OC12/C(=N/O)CCCCCC1c1ccccc12 (stereo not given) |  | > 200 µM | 37.2 µM
CC(=O)OCC1OC(N2C(=O)[C@H](Oc3ccccc3)[C@@H]2c2ccccc2)C(OC(C)=O)C(OC(C)=O)C1OC(C)=O (stereo not given in full) |  | > 100 µM | > 100 µM
CC(C)=CC[C@]12CCN[C@H]1N(S(=O)(=O)c1ccccc1)c1ccccc12 |  | > 200 µM | 30.9 µM
O=C(CSc1nnc(-c2ccc(N=Cc3ccc(Cl)cc3)cc2)o1)Nc1ccc([N+](=O)[O-])cc1 |  | > 38 µM | 15.5 µM
C[C@@]12C(=O)OC(=O)[C@]1(C)[C@H]1CC[C@@H]2O1 |  | > 347 µM | 4.9 µM
CC(C)CCC[C@@H](C)C1CCC2[C@@H]3CC=C4C[C@@H](OP(=O)(O)OCCN(C)C)CC[C@]4(C)C3CC[C@@]21C (stereo not given in full) |  | > 87.1 µM | 11.7 µM
CC(=O)CC(=O)N1CCSC1=S |  | 126 µM | > 200 µM
CC(C)OP(=O)(OC(C)C)/C(Cl)=N/Nc1ccc([N+](=O)[O-])cc1 |  | > 70.8 µM | > 70.8 µM
CC1=C2C(=O)[C@H]3[C@@H](CC=C4C[C@@H](O)CC[C@@]43C)[C@@H]2CC[C@]12O[C@@H]1C[C@H](C)CN[C@H]1[C@H]2C |  | > 200 µM | > 2.45 µM and 102 µM
Cc1cc(NS(=O)(=O)c2ccc(N=Nc3c(N)n(C)c(=O)n(C)c3=O)cc2)nc(C)n1 |  | > 200 µM | > 200 µM
N#Cc1c(N2CCCC2)nsc1NCc1ccccc1 |  | > 200 µM | > 200 µM
CCC(c1ccc(OC(C)=O)c(CC(Br)CBr)c1)C(CC)c1ccc(OC(C)=O)c(CC(Br)CBr)c1 (stereo not given) |  | > 100 µM | 16.2 µM
NNC(=O)/C(NC(=O)c1ccccc1)=C(\N)c1ccc(Cl)cc1 |  | > 282 µM | 162 µM
Cc1ccc(C(=O)Nc2ccc(CP(=O)(O)O)cc2CP(=O)(O)O)cc1NC(=O)Nc1cc(C(=O)Nc2ccc(CP(=O)(O)O)cc2CP(=O)(O)O)ccc1C |  | > 200 µM | > 200 µM
Cc1cn(C2CC3OP(=O)(C(C)(C)C#N)OCC3O2)c(=O)[nH]c1=O (stereo not given) |  | > 708 µM | 447 µM
CCOC(=O)N1C2C=CC(C2)N1C(=O)Nc1ccc(Cl)cc1 (stereo not given) |  | > 200 µM | 170 µM
